In patent US8809537B2, “N-ethyl-4-hydroxyl-1-methyl-5-(methyl(2,3,4,5,6-pentahydroxyhexyl)amino)-2-oxo-N-phenyl-1,2-dihydroquinoline-3-carboxamide” (Teva Pharmaceutical Industries, Ltd., priority 2012, dated 2014):
Values belong to the molecule of their own block, whether it stands above or below them.

Legend:
[1] = test system: relapsing MS; conditions: Polman et al. 2005; cited from earlier work
[2] = test system: acute experimental autoimmune encephalomyelitis (aEAE) model; conditions: U.S. Pat. No. 6,077,851; cited from earlier work
[3] = cited from earlier work
[4] = formation of MEG-LAQ in LAQ formulation containing meglumine (stability); format: physicochemical; conditions: meglumine used in LAQ formulation
Protocol: MEG-LAQ may form under certain conditions when meglumine is used in LAQ formulation. For example, MEG-LAQ is formed at 40° C. and 75% Relative Humidity (accelerated conditions). MEG-LAQ is also formed at room temperature at <0.1%.

Compound: CCN(C(=O)c1c(O)c2c(Cl)cccc2n(C)c1=O)c1ccccc1 [Laquinimod, N-ethyl-N-phenyl-1,2-dihydro-4-hydroxy-5-chloro-1-methyl-2-oxoquinoline-3-carboxamide]
- development of active MRI lesions [1]: can reduce development of active MRI lesions
- effectiveness in the aEAE model [2]: effective

Compound: CCN(C(=O)c1c(O)c2c(Cl)cccc2n(C)c1=O)c1ccccc1 [Laquinimod sodium]
- oral bioavailability [3]: high oral bioavailability

- MEG-LAQ formed in LAQ formulation ([4]; 40° C. and 75% Relative Humidity (accelerated conditions)): formed
- MEG-LAQ formed in LAQ formulation ([4]; room temperature): < 0.1%
Compound: CCN(C(=O)c1c(O)c2c(N(C)C[C@H](O)[C@@H](O)[C@H](O)[C@H](O)CO)cccc2n(C)c1=O)c1ccccc1 [MEG-LAQ, N-ethyl-4-hydroxyl-1-methyl-5-(methyl(2,3,4,5,6-pentahydroxyhexyl)amino)-2-oxo-N-phenyl-1,2-dihydroquinoline-3-carboxamide]
